We go through 17 molecules from ChEMBL document CHEMBL1145579, “Development of potent and selective small-molecule human Urotensin-II antagonists” (Bioorg Med Chem Lett, 2008).

A value given as a limit tells only on which side of the number the result lay.

Data set [1] concerns the target Cytochrome P450 3A4 (Homo sapiens, UniProt P08684).
The target in data set [2] is Cytochrome P450 2D6 (Homo sapiens, UniProt P10635). In words: Inhibition of CYP2D6. The class given is ADME.
Data set [3] can be described thus: Binding affinity at batrachotoxinin sensitive Sodium channel in rat brain. It is filed as tissue-based.
Data set [4] concerns the target T1, Urotensin-2 receptor (Homo sapiens, UniProt Q9UKP6).
T1 sequence (Q9UKP6 whole entry): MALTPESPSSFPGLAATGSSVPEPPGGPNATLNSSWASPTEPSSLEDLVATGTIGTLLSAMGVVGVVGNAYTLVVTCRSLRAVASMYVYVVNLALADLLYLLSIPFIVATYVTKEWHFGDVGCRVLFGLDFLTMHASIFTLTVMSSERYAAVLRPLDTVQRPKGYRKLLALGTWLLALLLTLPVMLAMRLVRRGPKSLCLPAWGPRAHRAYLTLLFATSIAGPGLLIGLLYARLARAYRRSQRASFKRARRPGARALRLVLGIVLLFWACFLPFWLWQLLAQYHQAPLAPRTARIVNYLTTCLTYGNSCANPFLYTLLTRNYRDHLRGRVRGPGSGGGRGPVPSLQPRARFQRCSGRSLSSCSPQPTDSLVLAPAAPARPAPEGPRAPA
Nature of the data set: Displacement of [125I]hU-2 from human recombinant Urotensin 2 receptor expressed in HEK293 cells. It is filed as cell-based. Background: In a radioligand displacement assay an active substance lowers the binding of a labelled ligand.

Data set [5] deals with Kappa-type opioid receptor (Homo sapiens, UniProt P41145). Nature of the data set: Agonist activity at kappa opioid receptor. It is filed as functional.
Data set [6] can be described thus: Volume of distribution at steady state in rat at 2 mg/kg, iv and 4 mg/kg, po. The class given is ADME, organism-based. To be noted: in vivo, read-out: Vdss.
Data set [7] deals with T2, Urotensin-2 receptor (Rattus norvegicus) (UniProt P49684).
T2 sequence (whole entry): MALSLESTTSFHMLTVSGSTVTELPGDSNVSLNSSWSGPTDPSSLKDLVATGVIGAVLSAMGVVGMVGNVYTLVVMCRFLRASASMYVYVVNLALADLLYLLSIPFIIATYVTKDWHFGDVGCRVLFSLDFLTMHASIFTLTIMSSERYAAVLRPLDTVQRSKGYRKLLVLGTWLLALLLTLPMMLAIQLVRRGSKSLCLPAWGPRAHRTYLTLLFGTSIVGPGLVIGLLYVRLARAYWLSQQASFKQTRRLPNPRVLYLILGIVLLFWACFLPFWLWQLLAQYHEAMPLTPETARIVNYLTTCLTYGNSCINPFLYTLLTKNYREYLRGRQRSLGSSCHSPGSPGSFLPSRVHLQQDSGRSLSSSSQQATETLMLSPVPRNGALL
In words: Binding affinity at Urotensin 2 receptor in rat aorta.

Data set [8] can be described thus: Clearance in rat at 2 mg/kg, iv and 4 mg/kg, po. The class given is ADME, organism-based. To be noted: in vivo.
Data set [9] in a line: Cmax in rat at 2 mg/kg, iv and 4 mg/kg, po. To be noted: in vivo. It is filed as ADME, organism-based.
A short description of data set [10]: Oral bioavailability in rat at 4 mg/kg, po. It is filed as ADME, organism-based. To be noted: in vivo.
A short description of data set [11]: Half life in rat at 2 mg/kg, iv and 4 mg/kg, po. The class given is ADME, organism-based. Conditions: in vivo.

Chain of Cytochrome P450 3A4 (P08684 whole entry): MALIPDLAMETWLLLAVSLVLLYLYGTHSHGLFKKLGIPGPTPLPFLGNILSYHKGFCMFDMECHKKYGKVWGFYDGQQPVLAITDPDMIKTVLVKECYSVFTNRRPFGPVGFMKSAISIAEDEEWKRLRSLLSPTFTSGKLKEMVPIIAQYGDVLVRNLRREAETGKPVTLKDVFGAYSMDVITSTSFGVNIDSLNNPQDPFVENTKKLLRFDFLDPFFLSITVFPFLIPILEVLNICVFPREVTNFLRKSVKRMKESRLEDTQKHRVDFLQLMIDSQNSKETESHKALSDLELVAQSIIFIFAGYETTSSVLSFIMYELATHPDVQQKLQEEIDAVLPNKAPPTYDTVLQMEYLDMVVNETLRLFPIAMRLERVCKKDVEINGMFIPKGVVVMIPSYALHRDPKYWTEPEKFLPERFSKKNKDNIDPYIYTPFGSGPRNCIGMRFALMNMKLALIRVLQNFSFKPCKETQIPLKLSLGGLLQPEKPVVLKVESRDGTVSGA
Chain of Cytochrome P450 2D6 (P10635 whole entry): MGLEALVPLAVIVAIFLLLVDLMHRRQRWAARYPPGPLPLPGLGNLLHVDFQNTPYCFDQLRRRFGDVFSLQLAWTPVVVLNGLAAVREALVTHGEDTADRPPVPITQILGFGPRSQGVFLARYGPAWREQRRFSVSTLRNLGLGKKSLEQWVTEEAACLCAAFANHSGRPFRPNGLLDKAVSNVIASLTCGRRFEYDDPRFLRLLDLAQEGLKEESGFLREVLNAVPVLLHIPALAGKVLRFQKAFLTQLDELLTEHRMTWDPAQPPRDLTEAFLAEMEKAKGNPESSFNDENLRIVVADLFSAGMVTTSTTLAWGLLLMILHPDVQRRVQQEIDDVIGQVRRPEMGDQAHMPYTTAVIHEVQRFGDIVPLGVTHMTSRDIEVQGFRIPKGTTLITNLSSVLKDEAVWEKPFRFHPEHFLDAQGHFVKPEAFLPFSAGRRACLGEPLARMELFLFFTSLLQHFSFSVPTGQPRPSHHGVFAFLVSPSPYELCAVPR
Chain of Kappa-type opioid receptor (P41145 whole entry): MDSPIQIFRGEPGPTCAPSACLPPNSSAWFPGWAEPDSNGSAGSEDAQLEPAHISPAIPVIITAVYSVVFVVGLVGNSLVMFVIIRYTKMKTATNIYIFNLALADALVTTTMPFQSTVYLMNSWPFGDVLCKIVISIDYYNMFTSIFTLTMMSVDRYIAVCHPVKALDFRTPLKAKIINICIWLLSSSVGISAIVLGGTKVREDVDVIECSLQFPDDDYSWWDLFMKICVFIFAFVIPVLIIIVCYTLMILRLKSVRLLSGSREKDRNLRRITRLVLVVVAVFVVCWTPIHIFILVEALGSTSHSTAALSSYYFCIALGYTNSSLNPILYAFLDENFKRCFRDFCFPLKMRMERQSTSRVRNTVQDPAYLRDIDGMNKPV

Broadly, the IC50 is the point on the concentration scale where inhibition reaches its midpoint. Low readings indicate inhibition by little substance, high ones a need for much substance. What is called Ki is a measure of affinity in units of concentration, obtained from inhibition or displacement. Broadly, the EC50 is the concentration needed to bring the measured effect to its halfway point. High values mean a need for much substance, low ones an effect from little substance. Take `Cc1cc2ncc(=O)n(CC(=O)N3CCCC(c4ccccc4)C3CN3CCOCC3)c2cc1C` (racemic): the IC50 was 2.7 µM in [1] and 6.7 µM in [2]. For the same molecule, the Ki in [3] amounted to 6.9 µM; in [4] it was 0.005 µM. Besides, the EC50 in [5] is 30 µM.
Turning to `O=C(Cn1c(=O)cnc2cc(Cl)c(Cl)cc21)N1CCCC(c2ccccc2)C1CN1CCOCC1` (racemic), the IC50 in data set [1] is 1 µM; in data set [2], 21 µM. In addition, the Ki in data set [3] amounted to 18 µM; in data set [4], 0.003 µM. Besides, the midpoint of the response in data set [5], the EC50, lay at 15 µM.
What is called Cmax is the highest concentration seen after dosing. One may read the bioavailability as the share of a dose that reaches the circulation, judged against a reference dose that is usually intravenous. Low readings indicate little systemic uptake, high ones much systemic uptake. What is called half-life is how long it takes for the measured level to halve. A higher half-life goes with slow decline. Take `CN(CC(=O)N1CCCC(c2ccccc2)C1CN1CCCC1)c1ccc(Cl)c(Cl)c1` (racemic): in data set [6], the Vd stood at 23 L/kg. Moreover, the figures for the IC50 in [1] and in data set [2] were 1.4 µM and 0.75 µM, respectively. The molecule also displayed a Kb in [7] of 0.028 µM. The Ki in data set [3] stood at 2.5 µM; in data set [4], 0.016 µM. Further, in data set [8], the clearance was 97 mL/min/kg. This molecule yielded an EC50 in data set [5] of 3.2 µM. In data set [9], the Cmax was 100 ng/mL. This molecule showed a bioavailability in data set [10] of 0%. In addition, the half-life in data set [11] was 3.8 h.
Regarding `O=C(Cn1c(=O)sc2ccc(Cl)cc21)N1CCCC(c2ccccc2)C1CN1CCOCC1` (racemic), the Vd in data set [6] worked out at 26 L/kg. Also, the IC50 in data set [1] is 0.68 µM; in [2] it was 8 µM. The Ki in data set [3] turned out to be 3.5 µM; in [4], 0.006 µM. For the same molecule, the clearance in data set [8] was 130 mL/min/kg. In addition, the EC50 in data set [5] is 7.9 µM. The same molecule showed a Cmax in data set [9] of 160 ng/mL. Further, in data set [10], the bioavailability was under 1%. In [11], the half-life was 5 h.
As for `O=C(Cn1c(=O)sc2ccc(Cl)cc21)N1CCCC(c2ccccc2)C1CN1CCCC1` (racemic), the IC50 in data set [1] was 1 µM; in data set [2] it was 1.7 µM. Also, the figures for the Ki in data set [3] and in [4] were 0.33 µM and 0.0012 µM, respectively. For the same molecule, the EC50 in [5] was determined as 1.3 µM.
The like results for `Cc1cc2ncc(=O)n(CC(=O)N3CCCC(c4ccccc4)C3CN3CCCC3)c2cc1C` (racemic) were, in that order, 6.8 µM, 8.4 µM, 1.4 µM, 0.001 µM and 6.3 µM.
The like results for `O=C(Cn1c(=O)cnc2cc(Cl)c(Cl)cc21)N1CCCC(c2ccccc2)C1CN1CCCC1` (racemic) were, in that order, 1.2 µM, 2.9 µM, 0.93 µM, 0.0006 µM and 3.2 µM.
For the molecule `N#CCN(CC(=O)N1CCCC(c2ccccc2)C1CN1CCOCC1)c1ccc(Cl)c(Cl)c1` (racemic), in data set [6], the Vd is 8 L/kg. Besides, the IC50 was determined as 0.49 µM in [1] and 3.7 µM in data set [2]. Besides, the Ki in data set [3] amounted to 4 µM; in data set [4], 0.006 µM. Moreover, the clearance in [8] worked out at 60 mL/min/kg. In addition, the response in [5] was half-maximal at 5 µM (EC50). This molecule also registered a Cmax in [9] of 370 ng/mL. Moreover, the bioavailability in data set [10] was found to be 7%. This molecule also showed a half-life in [11] of 2.6 h.
As to `COCCN(CC(=O)N1CCCC(c2ccccc2)C1CN1CCOCC1)c1ccc(Cl)c(Cl)c1` (racemic), the IC50 in data set [1] is 0.48 µM; in data set [2], 3.2 µM. Further, the Ki in data set [3] was found to be 3.2 µM; in data set [4], 0.13 µM. The EC50 in [5] worked out at 10 µM.
Turning to `O=C(Cn1c(=O)oc2ccc(Cl)cc21)N1CCCC(c2ccccc2)C1CN1CCCC1` (racemic), the IC50 in data set [1] turned out to be 2.1 µM; in data set [2], 2.2 µM. Also, the Ki came out at 0.15 µM in data set [3] and 0.005 µM in data set [4]. The same molecule had an EC50 in data set [5] of 5 µM.
As to `COCCN(CC(=O)N1CCCC(c2ccccc2)C1CN1CCCC1)c1ccc(Cl)c(Cl)c1` (stereo not given), the Vd in data set [6] came to 27 L/kg. Further, the IC50 in data set [2] was 0.82 µM. The Ki in data set [3] was 0.96 µM; in data set [4] it was 0.008 µM. The same molecule showed a clearance in data set [8] of 120 mL/min/kg. The EC50 in [5] came out at 1 µM. In data set [9], the peak level (Cmax) was 95 ng/mL. The same molecule came in with a bioavailability in [10] of 30%. In data set [11], this molecule gave a half-life of 2.8 h.
For `O=C1COc2cc(Cl)c(Cl)cc2N1CC(=O)N1CCCC(c2ccccc2)C1CN1CCCC1` (racemic), the IC50 in data set [1] was determined as 1.8 µM; in data set [2], 1.6 µM. Moreover, the values for the Ki in [3] and in [4] were 0.68 µM and 0.0004 µM, respectively. Besides, a half-maximal effect in [5] (EC50) was put at 0.5 µM.
As to `N#CCN(CC(=O)N1CCCC(c2ccccc2)C1CN1CCCC1)c1ccc(Cl)c(Cl)c1` (racemic), the Vd in data set [6] was found to be 27 L/kg. The results for the IC50 in data set [1] and in data set [2] were 1.1 µM and 2.3 µM, respectively. This molecule came in with a Kb in data set [7] of 0.005 µM. The Ki in data set [3] stood at 1.6 µM; in data set [4] it was 0.002 µM. The molecule also came in with a clearance in [8] of 100 mL/min/kg. Also, the midpoint of the response in [5], the EC50, lay at 0.79 µM. The molecule also gave a Cmax in data set [9] of 120 ng/mL. Further, the bioavailability in [10] was 12%. The molecule also showed a half-life in data set [11] of 3.2 h.
Regarding `CN(CC(=O)N1CCCC(c2ccccc2)C1CN1CCOCC1)c1ccc(Cl)c(Cl)c1` (racemic), 2.3 µM corresponded to half-maximal inhibition in data set [2] (IC50). The values for the Ki in data set [3] and in data set [4] were 1.6 µM and 0.079 µM, respectively. Also, the EC50 in data set [5] worked out at 1 µM.
Turning to `O=C(Cn1c(=O)oc2ccc(Cl)cc21)N1CCCC(c2ccccc2)C1CN1CCOCC1` (racemic), the IC50 is 1.3 µM in [1] and 3.5 µM in data set [2]. Moreover, the Ki in [3] was 0.73 µM; in data set [4], 0.04 µM. This molecule also registered an EC50 in [5] of 1.3 µM.
Regarding `O=C1COc2cc(Cl)c(Cl)cc2N1CC(=O)N1CCCC(c2ccccc2)C1CN1CCOCC1` (racemic), the IC50 in [1] came out at 0.73 µM; in data set [2] it was 4.8 µM. The values for the Ki in data set [3] and in [4] were 1.3 µM and 0.002 µM, respectively. This molecule also came in with an EC50 in data set [5] of 7.9 µM.
Turning to `Cc1cc2c(cc1C)N(CC(=O)N1CCCC(c3ccccc3)C1CN1CCCC1)C(=O)CO2` (racemic), the IC50 came to 3.9 µM in data set [1] and 5.1 µM in data set [2]. In addition, the Ki in data set [3] is 0.39 µM; in data set [4] it was 0.0004 µM. In data set [5], this molecule came in with an EC50 of 5 µM.
